According to patent US20090131320A1, “PEPTIDES MODULATING THE ACTIVITY OF THE ENGRAILED TRANSCRIPTION FACTOR” (Centre National De La Recherche Scient., priority 2003, published 2009):
“Also recorded” adds a separate entry of the source.

T1: chick Engrailed-2 protein (Gallus gallus, UniProt Q05917)
T1 construct: expressed in transfected cells; host or cells: CHP100 neuroepithelial cell line, electroporated with pCL9mEn2
T1 sequence (Q05917 1-289): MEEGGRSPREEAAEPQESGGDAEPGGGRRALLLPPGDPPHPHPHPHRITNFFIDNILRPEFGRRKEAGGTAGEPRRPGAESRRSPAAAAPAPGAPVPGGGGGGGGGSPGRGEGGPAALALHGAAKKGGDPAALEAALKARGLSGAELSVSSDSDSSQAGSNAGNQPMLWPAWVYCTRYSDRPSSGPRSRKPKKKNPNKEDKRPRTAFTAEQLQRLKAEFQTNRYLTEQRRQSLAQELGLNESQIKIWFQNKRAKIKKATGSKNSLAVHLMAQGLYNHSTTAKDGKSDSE

T2: HDEn2C (chick Engrailed-2 protein from which amino acids 10 to 185 have been deleted) (Gallus gallus, UniProt Q05917, DEL10-185)
T2 construct: expressed in transfected cells; host or cells: CHP100 neuroepithelial cell line, electroporated with pCL9 mHDEn2C
T2 sequence (Q05917 with tags, fused parts or gaps DEL10-185): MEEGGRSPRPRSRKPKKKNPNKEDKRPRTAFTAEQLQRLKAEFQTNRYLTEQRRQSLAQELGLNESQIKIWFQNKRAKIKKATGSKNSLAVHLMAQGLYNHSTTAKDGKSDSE

B1: Engrailed-2: whole chick Engrailed-2 protein expressed from pCL9mEn2 under the CMV promoter (protein)
chain: T1 sequence (Q05917 1-289)

Legend:
MAP1B promoter = MAP1B promoter luciferase reporter (pMAP-luc) in CHP 100 cells, protein or peptide alone; type: cell-based; conditions: luciferase 24 hours after transfection
Procedure: (§1) The transcriptional activity of Engrailed is evaluated as described by Montesinos et al. (J. Neurosci., 21, 3350-9, 2001), by measuring the expression of the luciferase reporter gene placed in the plasmid pMAP-luc under the control of a promoter that is a target for Engrailed, the MAP1B (microtubule-associated protein 1B) promoter.
(§2) Cells of the neuroepithelial line CHP 100 (Schlesinger et al, Cancer Res. 36, […], 1976) are cultured in RPMI 1640 (Life Technologies, Gaithersburg, Md.) supplemented with 16 mM glucose, 15% fetal calf serum, 5 U/ml of penicillin and 5 μg/ml of streptomycin, and cotransfected by electroporation with pMAP-luc and one of the following vectors:
(§3) pCL9mEn2 (Mainguy et al., Natural Biotechnol. 18: 746-749, 2000) which contains the sequence encoding the whole chick Engrailed-2 protein, under the control of the CMV promoter;
pCL9mEn2ΔH1 (Joliot et al., Curr Biol. 8: 856-863, 1998), which contains the sequence encoding the chick Engrailed-2 protein from which amino acids 36 to 46 of the homeodomain (DNA-binding sequence) have been deleted, under the control of the CMV promoter;
(§4) pCL9 mHDEn2C, which contains the sequence encoding the chick Engrailed-2 protein from which amino acids 10 to 185 have been deleted, under the control of the CMV promoter.
(§5) The electroporation is carried out with a maximum of 10 μg of plasmid DNA (2 μg of reporter plasmid pMAP-luc+variable amounts of En2 expression vector) per 8×10^5 cells in 350 μl of medium, at 1050 μF and at […]. 400 μl of medium are then added and the combination is allowed to stand for 10 min. The cells are then placed in culture, after washing, in two dishes (3.5 cm diameter).
(§6) The luciferase activity is assayed 24 hours after transfection. The cells are rinsed with PBS. Lysis buffer (20 mM Tris/H3PO4, pH 7.8, 10 mM MgCl2, 15% glycerol, 1 mM EDTA, 1% Triton-X 100, 1.25 mM ATP, 10 μg/ml luciferin) is added to the cells. After incubation at 4° C. for 30 min, the luciferase activity is measured by luminometry (Berthold Lumat LB 9501 luminometer).

[1] = molecular target: T1, chick Engrailed-2 protein; test: Effect of peptides on activation of the MAP1B promoter by Engrailed-2 in CHP100 cells (luciferase); type: cell-based; conditions: for effect on the activation of MAP1B by Engrailed (in words): peptide + En2 cotransfected
Procedure: as §1, §2, §3, §5, §6
The CHP100 cells are cotransfected by electroporation, as defined above, with pMAP-luc (2 μg), pCL9mEn2 or pCL9 mHDEn2C (4 μg) and 4 μg of pCS2-pep1 or pCS2-pep2.

[2] = molecular target: T2, HDEn2C (chick Engrailed-2 protein from which amino acids 10 to 185 have been deleted); test: Effect of peptides on activation of the MAP1B promoter by HDEn2C (Engrailed homeodomain) in CHP100 cells (luciferase); type: cell-based; conditions: HDEn2C + peptide cotransfected
Procedure: as §1, §2, §4
as §5, with “The cells are then placed in culture, after washing, in two dishes (3.5 cm diameter).” left out
The luciferase activity is assayed 24 hours after transfection. […] After incubation at 4° C. for 30 min, the luciferase activity is measured by luminometry (Berthold Lumat LB 9501 luminometer). […]

Engrailed [3] = test: Effect of peptides on the activity of Engrailed in primary cultures of mesencephalic neurons (pMAP-luc); type: cell-based; conditions: primary mouse embryonic mesencephalic neurons; for effect on the activation of the MAP1B promoter in neurons: endogenous Engrailed
Procedure: In order to verify the functionality of peptides 1 and 2 in a physiological cellular context, the effect of these peptides was tested in primary cultures of mouse embryonic mesencephalic neurons.
Fragments of mouse mesencephalon (embryonic day 13.5) are incubated at 24° C. for 5 min in trypsin-EDTA, then washed in a phosphate buffer, pH 7.5, supplemented with 33 mM glucose (PBS) and 10% fetal calf serum, and subsequently incubated at 37° C. for 10 min in […] of DnaseI (Sigma, Saint Louis, Mo.). The cells are dissociated mechanically, washed three times with PBS, and placed in culture at a density of 200 000 cells/cm^2, in wells pre-saturated with D,L-poly-ornithine (1.5 μg/ml) and laminin (5 μg/ml). The culture medium (MMS) consists of DMEM/F12 (1/1, Life Technologies, Cergy, France), with 33 mM glucose, 2 mM glutamine, 10 mM HEPES, pH 7.4, 9 mM NaHCO^−3, 5 U/ml of penicillin and 5 μg/ml of streptomycin. Added to MSS are 0.1% of ovalbumin, 25 μg/ml of insulin, 100 μg/ml of transferrin, 20 nM of progesterone, 60 μM of putrescine and 30 nM selenium (M2OV).
The day after the cells were placed in culture, the medium, in each well, is replaced with 600 μl of MSS, without penicillin or streptomycin. 100 μl of the transfection mixture comprising pMAP-luc (0.5 μg) and 0.5 μg of pCS2-pep1 or pCS2-pep2, and 1 mg/ml of Lipofectamine 2000 (Invitrogen) in OPTI-MEM medium (qs 100 μl), mixed beforehand for 20 min at 24° C., are added to each well. The cells are then incubated at 37° C. for 2 h 30 min. The medium is then replaced with M20V.

Engrailed [4] = test: In vivo effect on the transcriptional activity of Engrailed, pMAP-lacZ β-galactosidase reporter in the neural tube of chick embryos; conditions: chick embryo neural tube HH8-HH10, electroporation, 24 h
Procedure: The effect of pep1 or pep2 on the transcriptional activity of Engrailed was evaluated by measuring the expression of the β-galactosidase reporter gene placed in the plasmid pMAP-lacZ (described by Montesinos et al., 2001, mentioned above) under the control of the MAP1B promoter, in the neural tube of chick embryos at the HH8-HH10 stage.
The vectors pCS2-pep1 or pCS2-pep2, and also the vector pMAP-lacZ vector (each vector is used at a concentration of 1 μg/μl), were introduced by electroporation into the neural tube of chick embryos at the HH8-HH10 stage in accordance with the protocol of Muramatsu et al. (1997), with a BTX ECM 830 electroporator (4 pulses of 25 V and 50 msec) (Genetronics, San Diego, Calif.). The vectors were injected into the neural tube using a micropipette.

Molecule	activation of the MAP1B promoter by the protein or peptide alone (MAP1B promoter)	effect on the activation of MAP1B by Engrailed (in words) [1]	increase of the activation of MAP1B by Engrailed ([1]; peptide introduced at the same time as Engrailed-2 (4 μg each vector))	effect on the activation of MAP1B by the HDEn2C peptide [2]	effect on the activation of the MAP1B promoter in neurons (Engrailed [3])	effect on the activation of the MAP1B promoter in vivo (β-galactosidase) (Engrailed [4])	activating effect compared with peptide 1 in neurons (Engrailed [3])
HOXA5: another homeodomain protein	activated						
KVWDIRYTTPHA [aOTX2, reference compound]		does not modify					
SWWETQLIASSG [Peptide 1]	no action	activating effect	approximately 50%	greatly increased	increased	increased	
WSWNEEVWFPFT [Peptide 2]	no effect	inhibitor; also recorded: inhibitory effect		increases the activation	increased	increases the activation	greater than that of peptide 1
B1	capable of activating						
